Like-named read-outs stand apart in the source and are kept apart here.
Experiments:
[1] = tested on: HSV-2; set-up: method as in Zhu et al., 2024 (citation number not given); conditions: earlier paper of the authors; ref Zhu et al., 2024 (citation number not given); cited from earlier work
[2] = tested on: FluB
[3] = tested on: H3N2; test: microbe, parasite or virus in culture; type: cell-based; conditions: Influenza A virus, posttreatment condition, MDCK cells
[4] = tested on: H1N1 clinical
[5] = tested on: H3N2; test: Influenza inhibition assay (ICC on MDCK cells, pretreatment); type: cell-based; conditions: Influenza A virus
[6] = tested on: H1N1N09; test: Influenza virucidal assay; type: cell-based, Influenza A/Netherlands/602/2009 (H1N1)
[7] = tested on: HSV-1
[8] = tested on: H3N2
[9] = Cytotoxicity assay for MDCK (MTT); type: cell-based; conditions: dog, MDCK cells
Protocol: MTT assay was used to evaluate the cytotoxicity on MDCK cells. 10^4 cells per well were seeded in a 96-well plate 1 day before the assay. A dose range of each drug (from 4.11 μM to 1000 μM) was added to the cells in serum-free medium for MDCK cells. The antivirals were incubated on the cells for 24 h at 37 °C. After incubation, the cells were washed, and MTT reagent (Promega) was added to the cells for 4 h at 37 °C according to the manufacturer’s instructions. The cells were then washed, and 50 μL of DMSO was added to free the reagent. Subsequently, the absorbance was read at 579 nm. Percentages of viability were calculated by comparing the absorbance in treated wells and untreated conditions.

[10] = tested on: HSV-2; test: HSV-2 inhibition assay (plaque reduction on Vero cells, pretreatment); type: cell-based, herpes simplex virus type 2; conditions: for IC50: Human alphaherpesvirus 2, Vero, dose–response, Vero cells
Protocol: The inhibitory effect of compounds on HSV-2 was evaluated by plaque reduction assay. Vero cells were plated 24 h before the experiment in 24-well plates with a seeding density of 10^5 cells/well. Serial dilutions of compounds in DMEM medium (2% FBS, 1% P/S) were prepared, followed by the addition of aliquots of HSV-2 such that the final titer of the virus was 200 pfu/mL (with MOI = 0.0005). Compounds/virus mixtures were incubated at 37 °C for 1 h and added to the cells (250 μL/well). Followed by incubation at 37 °C for 1 h, the viral inoculum was removed. The cells were overlaid with DMEM medium containing 1.2% methylcellulose, 2% FBS, and 1% P/S. After 48 h of incubation at 37 °C, 5% CO2, the cells were fixed and stained with 0.1% crystal violet in 20% ethanol. Finally, the plaques were counted. Each group of experiments in the inhibition assay was performed in triplicate. The concentration producing a 50% reduction in plaque formation was determined using Prism 10 software (GraphPad Software, USA) by comparing compound-treated and untreated cells. Infectivity was calculated as the number of plaques in compound-treated cells/number of plaques in untreated cells × 100%.

[11] = tested on: HSV-2; set-up: method as in Zhu et al., 2024 (citation number not given); conditions: earlier paper of the authors on benzene-core MEIs; ref Zhu et al., 2024 (citation number not given); read-out: IC50 against HSV-2; cited from earlier work
[12] = dose–response, read-out: IC50 H3N2
[13] = pretreatment condition, read-out: pretreatment IC50, H3N2
[14] = HSV-2 inhibition, concentration intended to inhibit infection by at least 90 and 99%

SMILES | inhibition mechanism with HSV-2 [1] | Virucidal activity, FluB [2] | IC50 [3] [µM] | Virucidal activity, H1N1 clinical [4] | IC50 [5, 12] [µM] | IC50 [5, 13] [µM] | Virucidal activity, H1N1N09 [6] | Virucidal activity, V-1 [7] | Virucidal activity, H3N2 [8] | CC50 at 24 h [9] [µM] | IC99 [10] [µM] | IC50 [10] [µM] | IC99 [10, 14] [µM] | IC50 [11] [µM]
O=S(=O)(O)CCCCCCCCCCCSCc1cc(CSCCCCCCCCCCCS(=O)(=O)O)cc(CSCCCCCCCCCCCS(=O)(=O)O)c1 [B3C11SO3] | virustatic | S | 24.8 ± 1.2 | S | 49.5 ± 8.7 | 49.5 ± 8.7 | S | S | S | > 415 | 1092 ± 7.6 | 88.5 ± 7.6 | – | –
O=S(=O)(O)OCCCCCCCCCCCSCc1cc2c(cc1CSCCCCCCCCCCCOS(=O)(=O)O)OCCOCCOc1cc(CSCCCCCCCCCCCOS(=O)(=O)O)c(CSCCCCCCCCCCCOS(=O)(=O)O)cc1OCCOCCO2 [C4C11SO4] | – | – | 18.3 ± 0.75 | – | 40.9 ± 1.19 | 6.4 ± 1.03 | – | – | – | > 194 | – | 9.8 ± 1.5 | 67.47 ± 5.2 | –
O=S(=O)(O)CCCCCCCCCCCSCc1cc2c(cc1CSCCCCCCCCCCCS(=O)(=O)O)OCCOCCOc1cc(CSCCCCCCCCCCCS(=O)(=O)O)c(CSCCCCCCCCCCCS(=O)(=O)O)cc1OCCOCCO2 [C4C11SO3] | – | – | 52.6 ± 0.5 | – | 6.4 ± 1.03 | 40.9 ± 1.19 | – | – | – | 202.3 ± 0.76 | – | 18.5 ± 5.2 | 408 ± 1.5 | –
O=S(=O)(O)OCCCCCCCCCCCSCc1cc(CSCCCCCCCCCCCOS(=O)(=O)O)cc(CSCCCCCCCCCCCOS(=O)(=O)O)c1 [B3C11SO4] | virucidal | – | 8.6 | – | 0.6 ± 0.12 | 0.6 ± 0.12 | – | – | – | 12.2 ± 0.94 | – | 43 ± 8.3 | 103.8 ± 8.3 | 26.2

— paper PMC12598866, “A Comparative Study of Virucidal and Virustatic Multivalent Entry Inhibitors” (The Journal of Physical Chemistry. B, 2025)
